The text below walks through data of patent US9216187B2, “Soyasapogenol composition” (J-OIL MILLS, INC., priority 2011, dated 2015).

This data set in a line: Evaluation of absorption of soyasapogenol composition, blood soyasapogenol B at 1 to 12 hours and AUC (Examples 3 to 4). In kind it is in vivo. The note with it: rat, plasma, oral, male SD rats, single dose with feeding needle, 100 μmol/kg body weight in terms of saponin aglycone. The method, then: To each of the obtained plasma, 0.2 M Na acetate buffer solution (pH 5.5) in an amount same as that of the plasma was added. Subsequently, 3000 units of β-glucuronidase (product name: H-2, product of Sigma-Aldrich, Co. LLC) were added, and an enzyme reaction was allowed at 37° C. for 12 hours. After termination of the reaction, 3 ml of a mixture liquid of methanol:acetonitrile (1:1) and internal standard formononetin (product of Sigma-Aldrich, Co. LLC) were added to the enzyme treatment solution, followed by centrifugation, and then a supernatant was collected. An operation of adding 3 ml of the mixture liquid of methanol:acetonitrile (1:1) to a residue and performing centrifugation was repeated twice, and a supernatant was collected after each of the operations. The collected supernatants were mixed and subjected to drying under reduced pressure using a rotary evaporator.
8-week-old male SD rats (Charles River Laboratories Japan, Inc.) were divided into groups so that one group consists of 4 rats, and each of the compositions of Examples 3 and 4 and Comparative Example 1 was suspended into a 0.5% CMC solution, followed by a single dose administration of the suspension in an equivalent amount (100 μmol/kg body weight) in terms of saponin aglycone to each of the rats with a feeding needle. Blood sampling was conducted at 1, 3, 8 and 12 hours after the administration, and plasma was obtained from each of the blood samples. Each of the obtained plasma was subjected to the pre-treatment and the HPLC-MS analysis in the same manner as in Example 1 to examine the soyasapogenol B concentration in the blood. The blood soyasapogenol B concentration at 1 to 12 hours after the administration and AUCs (areas under curve of the blood concentration) are shown in Table 3.

For `CC1(C)C[C@@H](O)[C@]2(C)CC[C@]3(C)C(=CC[C@@H]4[C@@]5(C)CC[C@H](O)[C@](C)(CO)[C@@H]5CC[C@]43C)[C@@H]2C1` [Comp. Ex. 1, soyasapogenol B], where the note is “100 umol/kg, 1 to 12 hours, read-out: AUC (area under curve of the blood soyasapogenol B concentration)”, the AUC was found to be 2910 ng·h/mL. In addition, the concentration at 1 h (1 hour, read-out: Blood Soyasapogenol B Concentration 1 hour after) stood at 317 ng/mL. For the same compound, for the setting “3 hours, read-out: Blood Soyasapogenol B Concentration 3 hours after”, the concentration at 3 h came out at 280 ng/mL. Under “8 hours, read-out: Blood Soyasapogenol B Concentration 8 hours after”, the concentration at 8 h stood at 293 ng/mL. Besides, the concentration at 12 h (12 hours, read-out: Blood Soyasapogenol B Concentration 12 hours after) worked out at 68.1 ng/mL.
